The text below walks through data of patent US8802700B2 (Vertex Pharmaceuticals Incorporated, priority 2010, dated 2014).

This test deals with T1, ΔF508-CFTR (Homo sapiens, UniProt P13569, DEL508-508).
T1 construct: expressed in transfected cells
Description: Membrane potential optical assay (FRET voltage-sensor dyes, VIPR), identification of potentiator compounds. It counts as cell-based. As to conditions: Table 3; assay not given; read-out: % Activity (% Efficacy, relative efficacy). In short, it runs like this:
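Potentiator screen measured membrane potential via FRET between CC2-DMPE donor and DiSBAC2(3), read on VIPR II. Compound went in with the first addition of chloride-free gluconate bath; cells were ΔF508-CFTR-expressing NIH3T3 mouse fibroblasts, temperature-corrected at 27 °C for 24 h.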

T1 sequence (P13569 with tags, fused parts or gaps DEL508-508): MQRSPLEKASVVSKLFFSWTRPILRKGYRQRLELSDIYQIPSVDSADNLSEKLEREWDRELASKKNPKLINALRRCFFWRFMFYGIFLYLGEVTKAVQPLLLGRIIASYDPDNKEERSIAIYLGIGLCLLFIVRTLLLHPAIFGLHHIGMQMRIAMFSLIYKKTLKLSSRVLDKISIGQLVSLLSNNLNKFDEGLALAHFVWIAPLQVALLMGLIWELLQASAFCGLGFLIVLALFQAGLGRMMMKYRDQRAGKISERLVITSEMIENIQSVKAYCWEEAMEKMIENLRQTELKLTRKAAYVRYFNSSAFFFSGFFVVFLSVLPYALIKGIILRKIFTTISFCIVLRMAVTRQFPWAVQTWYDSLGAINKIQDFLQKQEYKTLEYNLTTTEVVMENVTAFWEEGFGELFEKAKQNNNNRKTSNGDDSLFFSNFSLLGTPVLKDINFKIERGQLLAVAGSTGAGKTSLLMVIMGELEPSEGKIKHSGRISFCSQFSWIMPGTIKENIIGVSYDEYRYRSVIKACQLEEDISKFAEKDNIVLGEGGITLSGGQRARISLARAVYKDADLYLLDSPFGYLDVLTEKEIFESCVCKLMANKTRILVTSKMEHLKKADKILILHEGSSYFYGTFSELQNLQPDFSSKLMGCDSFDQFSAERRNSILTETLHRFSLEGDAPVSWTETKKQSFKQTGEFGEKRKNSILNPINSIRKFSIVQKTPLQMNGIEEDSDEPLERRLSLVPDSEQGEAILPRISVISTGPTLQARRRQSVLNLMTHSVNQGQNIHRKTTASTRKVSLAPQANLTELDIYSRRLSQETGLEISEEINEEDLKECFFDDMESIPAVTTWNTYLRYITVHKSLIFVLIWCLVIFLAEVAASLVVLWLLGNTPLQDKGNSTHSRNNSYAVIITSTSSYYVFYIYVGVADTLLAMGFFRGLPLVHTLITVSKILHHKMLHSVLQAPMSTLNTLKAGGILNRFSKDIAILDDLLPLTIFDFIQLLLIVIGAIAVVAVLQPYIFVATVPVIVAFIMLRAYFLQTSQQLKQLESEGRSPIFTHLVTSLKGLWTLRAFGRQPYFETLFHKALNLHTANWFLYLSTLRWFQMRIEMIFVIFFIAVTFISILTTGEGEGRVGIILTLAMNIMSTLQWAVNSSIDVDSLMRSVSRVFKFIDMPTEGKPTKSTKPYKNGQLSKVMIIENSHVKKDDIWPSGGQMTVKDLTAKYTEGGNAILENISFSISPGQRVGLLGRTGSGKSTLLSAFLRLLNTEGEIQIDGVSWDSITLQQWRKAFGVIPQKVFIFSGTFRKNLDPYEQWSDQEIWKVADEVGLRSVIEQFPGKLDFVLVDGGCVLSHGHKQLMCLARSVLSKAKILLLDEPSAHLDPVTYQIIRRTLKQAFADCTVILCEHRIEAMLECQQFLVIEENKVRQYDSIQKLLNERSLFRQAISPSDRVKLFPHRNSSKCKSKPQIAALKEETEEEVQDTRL

Take `CCc1cccc(C)c1NC(=O)c1c[nH]c2ccccc2c1=O` [Compound 180, N-(2-ethyl-6-methyl-phenyl)-4-oxo-1H-quinoline-3-carboxamide]: the Emax is 25 to 100%. The same measure for `Cc1ccc(-c2ccccc2NC(=O)c2c[nH]c3ccccc3c2=O)cc1` [Compound 181, 4-oxo-N-[2-(p-tolyl)phenyl]-1H-quinoline-3-carboxamide]: 25 to 100%; for `O=C(Nc1ccccc1-c1ccc(F)cc1)c1c[nH]c2ccccc2c1=O` [Compound 182, N-[2-(4-fluorophenyl)phenyl]-4-oxo-1H-quinoline-3-carboxamide]: 25 to 100%; for `CC(C)(C)OC(=O)N1CCCc2ccc(NC(=O)c3c[nH]c4ccccc4c3=O)cc21` [Compound 183, 7-[(4-oxo-1H-quinolin-3-yl)carbonylamino]-1,2,3,4-tetrahydroquinoline-1-carboxylic acid tert-butyl ester]: 25 to 100%. With `O=C(Nc1ccc2cc[nH]c2c1)c1c(C(F)(F)F)[nH]c2ccccc2c1=O` [Compound 184, N-(1H-indol-6-yl)-4-oxo-2-(trifluoromethyl)-1H-quinoline-3-carboxamide], the Emax was below 25%.

As to `O=C(Nc1cccc(S(=O)(=O)N2CCOCC2)c1)c1c[nH]c2ccccc2c1=O` [Compound 185, N-(3-morpholinosulfonylphenyl)-4-oxo-1H-quinoline-3-carboxamide], the Emax was below 25%.

For the compound `O=C(Nc1ccc2c(C3CCCC3)c[nH]c2c1)c1c[nH]c2ccccc2c1=O` [Compound 186, N-(3-cyclopentyl-1H-indol-6-yl)-4-oxo-1H-quinoline-3-carboxamide], the Emax is 25 to 100%.

On to `CC(=O)n1ccc2ccc(NC(=O)c3c[nH]c4ccccc4c3=O)cc21` [Compound 187, N-(1-acetyl-1H-indol-6-yl)-4-oxo-1H-quinoline-3-carboxamide], for which the Emax lay within 25 to 100%.

In the case of `CCOC(=O)c1cc2cc[nH]c2cc1NC(=O)c1c[nH]c2ccccc2c1=O` [Compound 188, 6-[(4-oxo-1H-quinolin-3-yl)carbonylamino]-1H-indole-5-carboxylic acid ethyl ester], the Emax is 25 to 100%. Consider `O=C(Nc1ccc(OCc2ccccc2)cc1)c1c[nH]c2ccccc2c1=O` [Compound 189, N-(4-benzyloxyphenyl)-4-oxo-1H-quinoline-3-carboxamide], for which the Emax lay within 25 to 100%. Next, `O=C(Nc1ccccc1-c1ccc(F)c(Cl)c1)c1c[nH]c2ccccc2c1=O` [Compound 190, N-[2-(3-chloro-4-fluoro-phenyl)phenyl]-4-oxo-1H-quinoline-3-carboxamide]: 25 to 100%. Consider `O=C(Nc1cccc2ncccc12)c1c[nH]c2ccccc2c1=O` [Compound 191, 4-oxo-N-(5-quinolyl)-1H-quinoline-3-carboxamide], for which the Emax was below 25%. Consider `Cc1cccnc1NC(=O)c1c[nH]c2ccccc2c1=O` [Compound 192, N-(3-methyl-2-pyridyl)-4-oxo-1H-quinoline-3-carboxamide], for which the Emax was below 25%. Next, `COc1ccc(NC(=O)c2c[nH]c3ccccc3c2=O)c(OC)n1` [Compound 193, N-(2,6-dimethoxy-3-pyridyl)-4-oxo-1H-quinoline-3-carboxamide]: 25 to 100%. Turning to `N#Cc1ccc(NC(=O)c2c[nH]c3ccccc3c2=O)cc1` [Compound 194, N-(4-cyanophenyl)-4-oxo-1H-quinoline-3-carboxamide], the Emax was below 25%.

Take `Cc1ccc(NC(=O)c2c[nH]c3ccccc3c2=O)nc1` [Compound 195, N-(5-methyl-2-pyridyl)-4-oxo-1H-quinoline-3-carboxamide]: the Emax was below 25%. The same measure for `CC(C)(C)CC(=O)Nc1ccc(C(C)(C)C)c(NC(=O)c2c[nH]c3ccccc3c2=O)c1` [Compound 196, N-[5-(3,3-dimethylbutanoylamino)-2-tert-butyl-phenyl]-4-oxo-1H-quinoline-3-carboxamide]: 25 to 100%; for `O=C(Nc1ccc(C(F)(F)F)nc1)c1c[nH]c2ccccc2c1=O` [Compound 197, 4-oxo-N-[6-(trifluoromethyl)-3-pyridyl]-1H-quinoline-3-carboxamide]: below 25%.
